Columns and labels:
Assay in all cases: Inhibition Assay
[1] = target: T1, Coagulation factor VIII (Homo sapiens, UniProt P00451); settings: 37 °C
From the text: Inhibition of factor VIII C2 domain.

[2] = target: T1, Coagulation factor VIII; settings: pH 8
Method: Inhibition of factor VIII ELISA. The interaction between factor VIII and PS was measured by using an enzyme-linked immunoadsorbent assay (ELISA).

[3] = target: T1, Coagulation factor VIII; settings: pH 7.9
From the text: Inhibition of factor X activation assay. A commercially available chromogenic assay that measures the rate of factor X activation to measure inhibiton of the cofactor function of factor VIII.

T1 sequence (P00451 20-759 limits assumed): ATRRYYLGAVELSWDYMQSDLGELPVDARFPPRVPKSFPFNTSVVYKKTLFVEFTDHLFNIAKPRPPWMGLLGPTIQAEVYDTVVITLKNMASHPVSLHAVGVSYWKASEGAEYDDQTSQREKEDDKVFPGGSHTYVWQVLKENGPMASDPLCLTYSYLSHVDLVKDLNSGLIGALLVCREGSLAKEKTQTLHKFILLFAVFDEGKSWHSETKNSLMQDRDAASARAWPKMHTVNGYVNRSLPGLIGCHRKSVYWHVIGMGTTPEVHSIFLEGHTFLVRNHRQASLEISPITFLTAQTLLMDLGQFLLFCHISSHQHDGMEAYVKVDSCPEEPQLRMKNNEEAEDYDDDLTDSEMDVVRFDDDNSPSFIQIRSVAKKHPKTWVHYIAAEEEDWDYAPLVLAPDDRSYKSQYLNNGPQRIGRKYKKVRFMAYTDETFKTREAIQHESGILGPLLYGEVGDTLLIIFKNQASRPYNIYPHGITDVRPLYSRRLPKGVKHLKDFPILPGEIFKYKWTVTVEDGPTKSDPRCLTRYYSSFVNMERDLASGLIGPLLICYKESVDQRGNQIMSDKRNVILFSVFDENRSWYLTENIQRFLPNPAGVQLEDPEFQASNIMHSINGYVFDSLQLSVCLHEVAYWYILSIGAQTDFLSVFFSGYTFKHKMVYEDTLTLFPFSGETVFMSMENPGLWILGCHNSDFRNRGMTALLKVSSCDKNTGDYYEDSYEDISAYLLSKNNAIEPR
T1 sequence (P00451 1668-2351 limits assumed): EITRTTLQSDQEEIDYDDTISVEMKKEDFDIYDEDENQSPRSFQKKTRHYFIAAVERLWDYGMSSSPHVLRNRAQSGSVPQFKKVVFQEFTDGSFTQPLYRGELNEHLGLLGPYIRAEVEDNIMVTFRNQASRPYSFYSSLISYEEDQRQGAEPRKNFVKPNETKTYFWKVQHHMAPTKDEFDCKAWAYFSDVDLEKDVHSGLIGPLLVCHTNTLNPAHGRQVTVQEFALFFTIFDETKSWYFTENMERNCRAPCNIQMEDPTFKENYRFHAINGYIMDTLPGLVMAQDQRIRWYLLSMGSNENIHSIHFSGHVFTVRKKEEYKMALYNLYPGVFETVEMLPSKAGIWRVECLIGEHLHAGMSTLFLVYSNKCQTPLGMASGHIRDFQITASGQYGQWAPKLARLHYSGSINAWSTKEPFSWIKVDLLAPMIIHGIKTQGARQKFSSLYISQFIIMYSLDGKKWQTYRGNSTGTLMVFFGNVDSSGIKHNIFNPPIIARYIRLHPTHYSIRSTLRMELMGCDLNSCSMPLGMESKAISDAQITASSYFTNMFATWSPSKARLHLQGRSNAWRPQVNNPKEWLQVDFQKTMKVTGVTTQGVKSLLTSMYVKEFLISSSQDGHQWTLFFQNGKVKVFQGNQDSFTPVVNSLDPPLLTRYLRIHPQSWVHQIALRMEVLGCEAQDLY

SMILES | IC50 [1] | IC50 [2] | IC50 [3]
CC(C=Cc1ccco1)=NCCCCNC(=O)C=Cc1ccco1 [5247489] | 56.1 µM |  | 
O=C1/C(=C\c2ccc(Sc3ccc(Cl)cc3)o2)SC(=S)N1c1ccc([N+](=O)[O-])cc1 [6789536] | 5.85 µM | 4.81 µM | 5.6 µM
O=C1/C(=C/c2ccc(Br)o2)SC(=S)N1c1ccc([N+](=O)[O-])cc1 [5739991] | 4.63 µM | 10.4 µM | 11.7 µM
N=C(NN=Cc1ccc(F)cc1)NN=Cc1ccc(F)cc1 [5924029] | 24.5 µM |  | 
CCOC(=O)c1c(NC(=S)NC(=O)c2ccccc2)sc2c1CCC(C)C2 (stereo unspecified) [5523453] | 27.7 µM |  | 
O=C1NC(=S)NC(=O)C1=Cc1ccc(-c2cccc(C(=O)O)c2Cl)o1 [8056354] | 6.29 µM | 6.51 µM | 6.8 µM
O=C1/C(=C/c2ccc(Br)o2)SC(=S)N1c1cccc(C(F)(F)F)c1 [5737176] | 6.66 µM | 9.25 µM | 8.5 µM
O=C1/C(=C/c2ccc(-c3ccc(Cl)cc3Cl)o2)SC(=S)N1c1cccc(C(F)(F)F)c1 [8047577] | 2.44 µM | 2.56 µM | 2.1 µM
O=C1NC(=S)NC(=O)C1=Cc1ccc(-c2ccc(Cl)c(C(=O)O)c2)o1 [8048422] | 4.17 µM | 3.89 µM | 6.7 µM
CCOc1ccc(-c2cc(C)n3nc(C(N)=O)cc3n2)cc1 | 26.8 µM |  | 
COc1cc(C=Nn2c(O)csc2=S)ccc1OCCOc1ccc(C(C)(C)C)cc1 [6209549] | 12.4 µM |  | 
COc1cc(/C=C2/SC(=S)N(CC(=O)Nc3ccccn3)C2=O)cc(OC)c1OC [6126765] | 11.9 µM |  | 
O=C1NC(=S)NC(=O)C1=Cc1ccc(-c2cc(Cl)c([N+](=O)[O-])cc2Cl)o1 [6190013] | 8.48 µM | 2.11 µM | 7.5 µM
O=C1/C(=C/c2ccc(I)o2)SC(=S)N1c1cccc(C(F)(F)F)c1 [5738875] | 5.65 µM | 6.83 µM | 5 µM
CCOc1ccc(Cl)cc1/C=C1/SC(=S)N(CC)C1=O [6168356] | 49.6 µM |  | 

From BindingDB's records for doi:10.1016/j.chembiol.2004.08.006 (University of Washington, 2004)
